What follows are compounds tested against T1, Tyrosine-protein phosphatase non-receptor type 11 (Homo sapiens, UniProt Q06124) (assay: (§1) Allosteric inhibition of N-terminal His-tagged human recombinant SHP2 extracted from Escherichia coli using DiFMUP as substrate preincubated with compound for 60 mins followed by substrate addition and measured after 30 mins by fluorescence based microplate reader analysis). Details: not given.
T1 sequence (Q06124 whole entry): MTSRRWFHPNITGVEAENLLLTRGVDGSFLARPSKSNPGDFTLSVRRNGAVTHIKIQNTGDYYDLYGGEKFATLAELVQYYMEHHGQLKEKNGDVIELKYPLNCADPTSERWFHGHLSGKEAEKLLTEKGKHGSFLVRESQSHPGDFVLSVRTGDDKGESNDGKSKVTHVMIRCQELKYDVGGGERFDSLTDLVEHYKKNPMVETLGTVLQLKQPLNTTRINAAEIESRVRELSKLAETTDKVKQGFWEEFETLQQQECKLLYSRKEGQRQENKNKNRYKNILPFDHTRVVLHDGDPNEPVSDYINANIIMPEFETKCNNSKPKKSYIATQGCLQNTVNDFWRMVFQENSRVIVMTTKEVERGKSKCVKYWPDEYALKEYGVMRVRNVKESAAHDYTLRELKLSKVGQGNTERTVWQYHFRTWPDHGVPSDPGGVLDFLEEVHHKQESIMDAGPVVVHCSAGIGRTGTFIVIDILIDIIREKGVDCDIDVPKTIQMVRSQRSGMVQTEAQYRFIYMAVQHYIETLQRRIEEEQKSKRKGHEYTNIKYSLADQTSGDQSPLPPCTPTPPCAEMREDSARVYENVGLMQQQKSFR

Row | IC50 [nM] | SMILES
1 | 1.08 | N[C@@H]1c2ccccc2CC12CCN(c1cnc(Sc3cccc(NC(=O)c4ncccc4Cl)c3Cl)cn1)CC2
2 | 365 | CC1(N)CCN(c2cnc(Sc3cccc(NC(=O)c4cccnc4Cl)c3Cl)cn2)CC1
3 | 32.3 | CC1(N)CCN(c2cnc(Sc3cccc(NC(=O)c4ncccc4F)c3Cl)cn2)CC1
4 | 119 | CC1(N)CCN(c2cnc(Sc3cccc(NC(=O)c4cccs4)c3Cl)cn2)CC1
5 | 52.8 | CC1(N)CCN(c2cnc(Sc3cccc(NC(=O)c4ncccc4Br)c3Cl)cn2)CC1
6 | 113 | CC1(N)CCN(c2cnc(Sc3cccc(NC(=O)c4ccco4)c3Cl)cn2)CC1
7 | 1.03 | C[C@@H]1OCC2(CCN(c3cnc(Sc4cccc(NC(=O)c5ncccc5Cl)c4Cl)cn3)CC2)[C@@H]1N
8 | 332 | CC1(N)CCN(c2cnc(Sc3cccc(NC(=O)c4cccc5ccccc45)c3Cl)cn2)CC1
9 | 51.9 | CC1(N)CCN(c2cnc(Sc3cccc(NC(=O)c4nccs4)c3Cl)cn2)CC1
10 | 147 | CC1(N)CCN(c2cnc(Sc3cccc(NC(=O)c4ccncc4Cl)c3Cl)cn2)CC1
11 | 89.1 | Cc1cccnc1C(=O)Nc1cccc(Sc2cnc(N3CCC(C)(N)CC3)cn2)c1Cl
12 | 218 | CC1(N)CCN(c2cnc(Sc3cccc(NC(=O)c4ccc(Cl)cn4)c3Cl)cn2)CC1
13 | 128 | CC1(N)CCN(c2cnc(Sc3cccc(NC(=O)c4cnccc4Cl)c3Cl)cn2)CC1
14 | 36.2 | CC1(N)CCN(c2cnc(Sc3cccc(N)c3Cl)cn2)CC1
15 | 88.6 | CC1(N)CCN(c2cnc(Sc3cccc(NC(=O)c4ncccc4C(F)(F)F)c3Cl)cn2)CC1
16 | 0.59 | C[C@@H]1OCC2(CCN(c3cnc(Sc4cccc(NC(=O)c5ncccc5O)c4Cl)cn3)CC2)[C@@H]1N
17 | 39.6 | CC1(N)CCN(c2cnc(Sc3cccc(NC(=O)/C=C/c4ccccc4)c3Cl)cn2)CC1

Row | IC50 [nM] | SMILES
18 | 530 | Nc1nc(N2CCN(C(=O)C3(N)CCCC3)CC2)cnc1Sc1ccnc(N)c1Cl
19 | 67.8 | CC1(N)CCN(c2cnc(Sc3cccc(NC(=O)c4ccccc4)c3Cl)cn2)CC1
20 | 0.6 | N[C@@H]1c2ccccc2CC12CCN(c1cnc(Sc3cccc(NC(=O)c4ncccc4O)c3Cl)cn1)CC2
21 | 49.8 | CC1(N)CCN(c2cnc(Sc3cccc(NC(=O)Cc4ccccc4)c3Cl)cn2)CC1
22 | 29.4 | CC1(N)CCN(c2cnc(Sc3cccc(NC(=O)c4ccccn4)c3Cl)cn2)CC1
23 | 1.87 | N[C@@H]1c2ccccc2CC12CCN(c1cnc(Sc3cccc(NC(=O)c4cccnc4O)c3Cl)cn1)CC2
24 | 174 | CC1(N)CCN(c2cnc(Sc3cccc(NC(=O)C4CCCCC4)c3Cl)cn2)CC1
25 | 1.7 | CC1(N)CCN(c2cnc(Sc3cccc(NC(=O)c4ncccc4Cl)c3Cl)cn2)CC1
26 | 296 | CC1(N)CCN(c2cnc(Sc3ccc(NC(=O)c4ccccc4)cc3Cl)cn2)CC1
27 | 175 | CC1(N)CCN(c2cnc(Sc3cccc(NC(=O)c4cccc(Cl)n4)c3Cl)cn2)CC1
28 | 30.1 | CC1(N)CCN(c2cnc(Sc3cccc(NC(=O)c4ncccn4)c3Cl)cn2)CC1
29 | 6.6 | CC1(N)CCN(c2cnc(Sc3cccc(NC(=O)c4ncccc4O)c3Cl)cn2)CC1
30 | 77 | CC1(N)CCN(c2cnc(Sc3cccc(NC(=O)c4cnccn4)c3Cl)cn2)CC1
31 | 6.4 | CC1(N)CCN(c2cnc(Sc3cccc(NC(=O)c4cnccc4O)c3Cl)cn2)CC1
32 | 11.3 | CC1(N)CCN(c2cnc(Sc3cccc(NC(=O)c4cccnc4O)c3Cl)cn2)CC1
33 | 219 | CC1(N)CCN(c2cnc(Sc3cccc(NC(=O)c4cc(Cl)ccn4)c3Cl)cn2)CC1

Row | SMILES | IC50 [nM]
34 | C[C@@H]1OCC2(CCN(c3cnc(Sc4cccc(NC(=O)c5cccnc5O)c4Cl)cn3)CC2)[C@@H]1N | 0.13
35 | C[C@@H]1OCC2(CCN(c3cnc(Sc4cccc(NC(=O)c5cnccc5O)c4Cl)cn3)CC2)[C@@H]1N | 0.17

What follows are compounds tested on MV4-11 (assay: Antiproliferative activity against human MV4-11 cells assessed as inhibition of cell proliferation incubated for 72 hrs by CCK-8 assay). Details: Homo sapiens, MV4-11, 72 h.
Assay type: functional, cell-based

Row | SMILES | IC50 [nM]
36 | C[C@@H]1OCC2(CCN(c3cnc(Sc4cccc(NC(=O)c5cccnc5O)c4Cl)cn3)CC2)[C@@H]1N | 45.5
37 | C[C@@H]1OCC2(CCN(c3cnc(Sc4cccc(NC(=O)c5cnccc5O)c4Cl)cn3)CC2)[C@@H]1N | 16.6

Each compound was assayed against T2, Tyrosine-protein phosphatase non-receptor type 11 (Homo sapiens) (UniProt Q06124) (assay: as §1, with “as substrate at 10 uM preincubated with” for “as substrate preincubated with”, “reader analysis relative to control” for “reader analysis”). Details: time 90.0 min.
T2 sequence (whole entry): T1 sequence (Q06124 whole entry)

Row | inhibition [%] | SMILES
38 | 43.8 | C[C@@H](N)C(=O)N1CCN(c2cnc(Sc3ccnc(N)c3Cl)c(N)n2)CC1
39 | 50.2 | Nc1nc(N2CCN(C(=O)[C@H]3CCCN3)CC2)cnc1Sc1ccnc(N)c1Cl
40 | 95.2 | Nc1nc(N2CCN(C(=O)C3(N)CCCC3)CC2)cnc1Sc1ccnc(N)c1Cl
41 | 58.8 | NCC(=O)N1CCN(c2cnc(Sc3ccnc(N)c3Cl)c(N)n2)CC1
42 | 14.3 | Nc1nc(N2CCN(C(=O)C3(N)CCCCC3)CC2)cnc1Sc1ccnc(N)c1Cl
43 | 44.2 | Nc1nc(N2CCN(C(=O)C3(N)CCC3)CC2)cnc1Sc1ccnc(N)c1Cl
44 | 13.2 | C[C@H](N)C(=O)N1CCN(c2cnc(Sc3ccnc(N)c3Cl)c(N)n2)CC1
45 | 48.8 | Nc1nc(N2CCN(C(=O)[C@@H]3CCCN3)CC2)cnc1Sc1ccnc(N)c1Cl
